Measurements published in patent US20200077658A1, “Pesticidal Compounds” (BASF SE, priority 2016, published 2020).

Assays:
Assay type in all cases: in vivo
[1] = tested on: yellow fever mosquito (Aedes aegypti); experiment: whole plant or invertebrate; conditions: 48 h, larval mortality visually assessed after 2 days, read-out: mortality in comparison with untreated controls
Method: For evaluating control of yellow fever mosquito (Aedes aegypti) the test unit consisted of 96-well-microtiter plates containing 200 μl of tap water per well and 5-15 freshly hatched A. aegypti larvae.
The active compounds were formulated using a solution containing 75% (v/v) water and 25% (v/v) DMSO. Different concentrations of formulated compounds or mixtures were sprayed onto the insect diet at 2.5 μl, using a custom built micro atomizer, at two replications.
After application, microtiter plates were incubated at 28±1° C., 80±5% RH for 2 days. Larval mortality was then visually assessed.

[2] = tested on: Orchid thrips (Dichromothrips corbetti); experiment: Action on orchid thrips (Dichromothrips corbetti), floral-immersion technique; conditions: adult thrips, mortality 72 hours after treatment, read-out: mortality in comparison with untreated controls
Method: Dichromothrips corbetti adults used for bioassay were obtained from a colony maintained continuously under laboratory conditions. For testing purposes, the test compound is diluted in a 1:1 mixture of acetone:water (vol:vol), plus Kinetic® HV at a rate of 0.01% v/v.
Thrips potency of each compound was evaluated by using a floral-immersion technique. All petals of individual, intact orchid flowers were dipped into treatment solution and allowed to dry in Petri dishes. Treated petals were placed into individual re-sealable plastic along with about 20 adult thrips. All test arenas were held under continuous light and a temperature of about 28° C. for duration of the assay. After 3 days, the numbers of live thrips were counted on each petal. The percent mortality was recorded 72 hours after treatment.

[3] = tested on: boll weevil (Anthonomus grandis); experiment: Action on boll weevil (Anthonomus grandis), 96-well microtiter plate diet test; conditions: 120 h, egg and larval mortality after 5 days, read-out: mortality in comparison with untreated controls
Method: For evaluating control of boll weevil (Anthonomus grandis) the test unit consisted of 96-well-microtiter plates containing an insect diet and 5-10 A. grandis eggs.
The compounds were formulated using a solution containing 75% v/v water and 25% v/v DMSO. Different concentrations of formulated compounds were sprayed onto the insect diet at 5 μl, using a custom built micro atomizer, at two replications.
After application, microtiter plates were incubated at about 25±1° C. and about 75±5% relative humidity for 5 days. Egg and larval mortality was then visually assessed.

[4] = tested on: Silverleaf Whitefly (Bemisia argentifoli) (Adults); experiment: Action on silverleaf whitefly (Bemisia argentifoli) adults, sprayed cotton plants; conditions: Bemisia argentifolii, 72 h, 3 days after treatment, read-out: mortality in comparison with untreated controls
Method: (§1) The active compounds were formulated by a Tecan liquid handler in 100% cyclohexanone as a 10,000 ppm solution supplied in tubes. The 10,000 ppm solution was serially diluted in 100% cyclohexanone to make interim solutions. These served as stock solutions for which final dilutions were made by the Tecan in 50% acetone:50% water (v/v) into 5 or 10 ml glass vials. A nonionic surfactant (Kinetic®) was included in the solution at a volume of 0.01% (v/v). The vials were then inserted into an automated electrostatic sprayer equipped with an atomizing nozzle for application to plants/insects.
Cotton plants at the cotyledon stage (one plant per pot) were sprayed by an automated electrostatic plant sprayer equipped with an atomizing spray nozzle. The plants were dried in the sprayer fume hood and then removed from the sprayer. Each pot was placed into a plastic cup and about 10 to 12 whitefly adults (approximately 3-5 days old) were introduced. The insects were collected using an aspirator and a nontoxic Tygon® tubing connected to a barrier pipette tip. The tip, containing the collected insects, was then gently inserted into the soil containing the treated plant, allowing insects to crawl out of the tip to reach the foliage for feeding. Cups were covered with a reusable screened lid. Test plants were maintained in a growth room at about […] and about 20-40% relative humidity for 3 days, avoiding direct exposure to fluorescent light (24 hour photoperiod) to prevent trapping of heat inside the cup. Mortality was assessed 3 days after treatment, compared to untreated control plants.

[5] = tested on: tobacco budworm (Heliothis virescens); experiment: Action on tobacco budworm (Heliothis virescens), 96-well microtiter plate diet test; conditions: 120 h, egg and larval mortality after 5 days, read-out: mortality in comparison with untreated controls
Method: For evaluating control of tobacco budworm (Helliothis virescens) the test unit consisted of 96-well-microtiter plates containing an insect diet and 15-25 H. virescens eggs.
The compounds were formulated using a solution containing 75% v/v water and 25% v/v DMSO. Different concentrations of formulated compounds were sprayed onto the insect diet at 10 μl, using a custom built micro atomizer, at two replications.
After application, microtiter plates were incubated at about 28±1° C. and about 80±5% relative humidity for 5 days. Egg and larval mortality was then visually assessed.

[6] = tested on: Diamond Back Moth (Plutella xylostella); experiment: Action on diamond back moth (Plutella xylostella), cabbage leaf dip; conditions: foliar, 3rd instar larvae on dipped cabbage leaves, 72 hours after treatment, read-out: mortality in comparison with untreated controls
Method: The active compound is dissolved at the desired concentration in a mixture of 1:1 (vol:vol) distilled water:acetone. Surfactant (Kinetic® HV) is added at a rate of 0.01% (vol/vol).The test solution is prepared at the day of use.
Leaves of cabbage were dipped in test solution and air-dried. Treated leaves were placed in petri dishes lined with moist filter paper and inoculated with ten 3rd instar larvae. Mortality was recorded 72 hours after treatment. Feeding damages were also recorded using a scale of 0-100%.

[7] = tested on: Southern Armyworm (Spodoptera eridania), 2nd Instar Larvae; experiment: Action on southern armyworm (Spodoptera eridania), 2nd instar larvae, sprayed lima bean plants; conditions: 96 h, 2nd instar larvae on lima bean, 4 days after treatment, read-out: mortality in comparison with untreated controls
Method: as §1, with “into 10” for “into 5”, “or 20” for “or 10”
Lima bean plants (variety Sieva) were grown 2 plants to a pot and selected for treatment at the 1st true leaf stage. Test solutions were sprayed onto the foliage by an automated electrostatic plant sprayer equipped with an atomizing spray nozzle. The plants were dried in the sprayer fume hood and then removed from the sprayer. Each pot was placed into perforated plastic bags with a zip closure. About 10 to 11 armyworm larvae were placed into the bag and the bags zipped closed. Test plants were maintained in a growth room at about 250C and about 20-40% relative humidity for 4 days, avoiding direct exposure to fluorescent light (24 hour photoperiod) to prevent trapping of heat inside the bags. Mortality and reduced feeding were assessed 4 days after treatment, compared to untreated control plants.

CC(C)c1ccccc1N1C(=O)CS\C1=N/N=C/C=C/c1cnc(N(C)c2ccc(OC(F)(F)F)cc2)nc1 [Compound C-5, (2Z)-3-(2-isopropylphenyl)-2-[(E)-[(E)-3-[2-[N-methyl-4-(trifluoromethoxy)anilino]pyrimidin-5-yl]prop-2-enylidene]hydrazono]thiazolidin-4-one]
≥ 75%: mortality at 800 ppm [1] | mortality at 500 ppm [2] | mortality at 800 ppm [3] | mortality at 300 ppm [4] | mortality at 800 ppm [5] | mortality at 500 ppm [6] | mortality at 300 ppm [7]

CC(/C=N/N=C1\SCC(=O)N1c1ccccc1C(C)C)=C\c1cnc(N(C)c2ccc(OC(F)(F)F)cc2)nc1C [Compound C-17, (2Z)-3-(2-isopropylphenyl)-2-[(E)-[(E)-2-methyl-3-[4-methyl-2-[N-methyl-4-(trifluoromethoxy)anilino]pyrimidin-5-yl]prop-2-enylidene]hydrazono]thiazolidin-4-one]
≥ 75%: mortality at 800 ppm [1] | mortality at 500 ppm [2] | mortality at 800 ppm [3] | mortality at 300 ppm [4] | mortality at 800 ppm [5] | mortality at 500 ppm [6] | mortality at 300 ppm [7]

CC(/C=N/N=C1\SCC(=O)N1c1ccccc1C(C)C)=C\c1cnc(N(C)c2ccc(OC(F)(F)F)cc2)nc1 [Compound C-7, (2Z)-3-(2-isopropylphenyl)-2-[(E)-[(E)-2-methyl-3-[2-[N-methyl-4-(trifluoromethoxy)anilino]pyrimidin-5-yl]prop-2-enylidene]hydrazono]thiazolidin-4-one]
≥ 75%: mortality at 800 ppm [1] | mortality at 500 ppm [2] | mortality at 800 ppm [3] | mortality at 300 ppm [4] | mortality at 800 ppm [5] | mortality at 500 ppm [6] | mortality at 300 ppm [7]
